Results on 13 compounds are retold here after patent US12162819B2, “Ionizable lipid compounds” (Beijing Jitai Pharmaceutical Technology Co., Ltd., priority 2022, dated 2024).

The nature of data set [1]: Particle size and PDI of lipid nanoparticles by dynamic light scattering. It is filed as physicochemical. The following applies: lipid nanoparticle with the cationic lipid, cholesterol, DSPC, DMG-PEG2000 (50/38.5/10/1.5 mol%), luciferase mRNA, N/P 6. The protocol:
(§1) Lipid nanoparticles were prepared by (1) dissolving and mixing ionizable lipid compounds, cholesterol, phospholipids and polyethylene glycolated lipids in ethanol at (molar percentages) 50%, 38.5%, 10% and 1.5%, respectively; (2) dissolving the mRNA active ingredient in 25 mM sodium acetate solution (pH=4.5); (3) using an automated high-throughput microfluidic system to mix the organic phase containing the lipid mixture and the aqueous phase containing the mRNA component in the flow ratio range of 1:1 to 1:4 at a mixing speed of 10 mL/min to 18 mL/min; (4) the prepared lipid nanoparticles (N/P ratio of 6) were diluted with phosphate buffer solution and the nanoparticle solutions were ultrafiltered to the original preparation volume using ultrafiltration tubes (purchased from Millipore) with a cut-off molecular weight of 30 kDa; and (5) the obtained nanoparticles were filtered through a sterile 0.2 μm filter membrane and then stored in a sealed glass vial at low temperature.
(§2) The particle size and particle size dispersity index (PDI) of the prepared lipid nanoparticles were measured using a Zetasizer Pro (purchased from Malvern Instruments Ltd) and a DynaPro NanoStar (purchased from Wyatt) dynamic light scattering instrument. The degree of RNA encapsulation by lipid nanoparticles was characterized by the Encapsulation Efficiency %, which reflects the degree of binding of lipid nanoparticles to RNA fragments. This parameter was measured by the method of Quant-It™ RiboGreen RNA Assay (purchased from Invitrogen). Lipid nanoparticle samples were diluted in TE buffer (10 mM Tris-HCl, 1 mM EDTA, pH=7.5). A portion of the sample solution was removed, to which 0.5% Triton (Triton X-100) was added, and then allowed to stand at 37° C. for 30 minutes. Immediately after the addition of RIBOGREEN® reaction solution, the fluorescence values were read on a Varioskan LUX multifunctional microplate reader (purchased from Thermofisher) at 485 nm for absorption and 528 nm for emission to give the encapsulation efficiency values.

A short description of data set [2]: Encapsulation efficiency of lipid nanoparticles, Quant-It RiboGreen RNA Assay. It is filed as physicochemical. Conditions: lipid nanoparticle with the cationic lipid, luciferase mRNA. The protocol:
as §1, §2

A further data set has as its system C57BL/6 mice. In words: In vivo bioluminescence assay of lipid nanoparticles encapsulated with luciferase mRNA in mice. The following applies: for in vivo delivery efficiency compared with the molecule without tetramethyl: LNP with luciferase mRNA in mice, compound 20 vs. D1, compound 46 vs. D2; for Total photon count in vivo at 6 hours after administration (Total Flux): C57BL/6 mice, intravenous, single dose 0.5 mg/kg luciferase mRNA in LNP, group mean. The protocol:
as §1
The delivery effect and safety of nanoparticles encapsulated with luciferase mRNA (Trilink, L-7202) in mice were evaluated. The test mice were SPF-grade C57BL/6 mice, female, 6-8 weeks old, weighing 18-22 g, and were purchased from SPF (Beijing) Biotechnology Co., Ltd. All animals were acclimatized for more than 7 days prior to the experiment, and had free access to food and water during the experiment. The conditions include alternating light and dark for 12/12 h, the indoor temperature of 20-26° C. and the humidity of 40-70%. The mice were randomly grouped. The lipid nanoparticles encapsulated with luciferase mRNA prepared above were injected into mice by intravenous administration at a single dose of 0.5 mg/kg mRNA, and the mice were subjected to in vivo bioluminescence assay using a Small Animal In Vivo Imaging System (IVIS LUMINA III, purchased from PerkinElmer) at 6 h after administration. The assay was performed as follows: D-luciferin solution was prepared in saline at a concentration of 15 mg/mL, and each mouse was given the substrate by intraperitoneal injection. At ten minutes after administration of the substrate, the mice were anesthetized in an anesthesia chamber with isoflurane at a concentration of 2.5%. The anesthetized mice were placed in IVIS for fluorescence imaging, and data acquisition and analysis were performed on the concentrated distribution area of fluorescence.
The in vivo delivery efficiency of lipid nanoparticle carriers was expressed as the mean values of fluorescence intensity and total photon count in different animals within the same subject group, as shown in Table 5. Higher values of fluorescence intensity and total photon count indicate higher in vivo delivery efficiency of this mRNA fragment by lipid nanoparticles. The lipid nanoparticles containing the cationic lipids of the present disclosure have good in vivo delivery efficiency.

In data set [3] the test system is human embryonic kidney cells 293 (HEKi293T cells). The data set can be described thus: In vitro delivery of luciferase mRNA nanoparticles, luciferase expression (RLU). The format is cell-based. Conditions: HEK293T cells, LNP with luciferase mRNA, 24 h. The method, then:
as §1
(§3) The delivery effect and safety of nanoparticles encapsulated with luciferase mRNA were evaluated at the cellular level in vitro. The cells used in the assay were human embryonic kidney cells 293 (HEKi293T cells) cultured in DMEM (Dulbecco's Modified Eagle Medium) (purchased from Thermo Fisher) containing […] fetal bovine serum and […] penicillin-streptomycin double antibiotics at a indoor temperature of 37° C. and a CO2 concentration of […]. The cells were uniformly dispersed and spread in 48-well plates, and incubated in the incubator for 24 h. Then a solution of the lipid nanoparticles encapsulated with luciferase mRNA were added. After 24 h, the cells were lysed, and the intracellular expression intensity and relative light units (RLU) of luciferase in each type of lipid nanoparticles were measured with a luciferase detection reagent (purchased from Promega). The higher the intensity of expression, the higher the delivery efficiency of the lipid material at the cellular level. Meanwhile, CCK-8 reagent (purchased from DOJINDO) was used in cytotoxicity testing for the parallel lipid nanoparticle-treated cell groups after 24 hours. In the test, the group of cells to which only PBS was added was used as a negative control. The procedure was as follows: after the addition of CCK-8 solution, the cells were left to stand in an incubator at 37° C. for 4 h. The absorbance values were read on a multifunctional microplate reader at an absorbance band of 450 nm. The ratio of the absorbance value of the nanoparticle-treated cells to that of the negative control was used as a characterization parameter for cell viability.

Data set [4] has the same test system. In words: CCK-8 cytotoxicity testing of lipid nanoparticle-treated cells. The format is cell-based. Set-up: concentration or dose not given beside the values. The following applies: HEK293T cells, LNP-treated 24 h, CCK-8, ratio to PBS negative control. The method, then:
as §1, §3
On the technique in general: Tetrazolium dyes change colour on reduction, which living cells bring about.

For `CCCCCCCCCOC(=O)C(C)(C)CCCCCC(CCCCCC(C)(C)C(=O)OCCCCCCCCC)OC(=O)CCCN(C)C` [Compound 20], in data set [1], the “Particle size (nm)” value is reported as 99.61 nm and the “Particle size dispersity (PDI)” value is 0.10. Further, in data set [2], the “Encapsulation efficiency (%)” value came out at 71.93%. Besides, in the data set on C57BL/6 mice, the “in vivo delivery efficiency compared with the molecule without tetramethyl” value is “significantly increased in vivo delivery efficiency”.
In the case of `CCCCCCCCCOC(=O)C(C)(C)CCCCCC(CCCCCC(C)(C)C(=O)OCCCCCCCCC)OC(=O)CCCCCN(C)C` [Compound 32], in data set [1], the “Particle size (nm)” value is reported as 116.61 nm and the “Particle size dispersity (PDI)” value was 0.07. Besides, in data set [2], the “Encapsulation efficiency (%)” value came to 99.02%. In addition, the “Luciferase luminescence (RLU)” value in data set [3] stood at 6.99E+06 RLU. Also, the “Cell viability (%)” value in data set [4] is reported as 96.25%.
Consider `CCCCCCCCCSC(=O)C(C)(C)CCCCCC(CCCCCC(C)(C)C(=O)SCCCCCCCCC)OC(=O)CCCN(C)C` [Compound 37], for which, in data set [1], the “Particle size (nm)” value came to 92.18 nm and the “Particle size dispersity (PDI)” value is on record as 0.03. Moreover, in data set [2], the “Encapsulation efficiency (%)” value amounted to 89.07%. Also, in data set [3], the “Luciferase luminescence (RLU)” value stood at 1.04E+07 RLU. In data set [4], the “Cell viability (%)” value amounted to 97.48%.
As to `CCCCCCCCCOC(=O)C(C)(C)CCCCCC(CCCCCC(C)(C)C(=O)SCCCCCCCCC)OC(=O)CCCN(C)C` (stereo not drawn) [Compound 41], in data set [1], the “Particle size (nm)” value worked out at 104.27 nm and the “Particle size dispersity (PDI)” value is listed as 0.05. Moreover, in data set [2], the “Encapsulation efficiency (%)” value is given as 93.91%. Besides, the “Luciferase luminescence (RLU)” value in data set [3] amounted to 1.23E+07 RLU. Besides, the “Cell viability (%)” value in data set [4] stood at 104.91%.
Regarding `CCCCCCCCCOC(=O)C(C)(C)CCCCCC(CCCCCC(C)(C)C(=O)OCC(CCCCC)CCCCCCC)OC(=O)CCCN(C)C` (stereo not drawn) [Compound 46], in data set [1], the “Particle size (nm)” value was found to be 97.30 nm and the “Particle size dispersity (PDI)” value is given as 0.09. For the same compound, the “Encapsulation efficiency (%)” value in data set [2] was found to be 95.68%. For the same compound, the “in vivo delivery efficiency compared with the molecule without tetramethyl” value in the data set on C57BL/6 mice is reported as “significantly increased in vivo delivery efficiency”.
On to `CCCCCCCCCOC(=O)CC(C)(C)CCCCC(CCCCC(C)(C)CC(=O)OCCCCCCCCC)OC(=O)CCCN(C)C` [Compound 97], for which, in data set [1], the “Particle size (nm)” value is on record as 157.00 nm and the “Particle size dispersity (PDI)” value is listed as 0.25. Further, the “Encapsulation efficiency (%)” value in data set [2] was determined as 93.72%. Besides, in the data set with C57BL/6 mice, the “Total photon count in vivo at 6 hours after administration (Total Flux)” value (from here on “Total photon count in vivo at 6 hours”) is given as 3.37E+09.
For `CCCCCCCCCCOC(=O)C(C)(C)CCCCCC(CCCCCC(C)(C)C(=O)OCCCCCCCCCC)OC(=O)C1CCN(C)CC1` [Compound 99] the same measures were 139.99 nm, 0.05, 90.69% and 5.30E+09.
In the case of `CCCCCCCCOC(=O)C(C)(C)CCCCCC(CCCCCC(C)(C)C(=O)OCCCCCCCC)OC(=O)C1CCN(C)CC1` [Compound 100], in data set [1], the “Particle size (nm)” value is 118.19 nm and the “Particle size dispersity (PDI)” value turned out to be 0.07. Moreover, the “Encapsulation efficiency (%)” value in data set [2] was 83.29%. In addition, in data set [3], the “Luciferase luminescence (RLU)” value is recorded as 1.98E+06 RLU. Also, the “Cell viability (%)” value in data set [4] was determined as 104.67%.
In the case of `CCCCCCCCCSC(=O)C(C)(C)CCCCCC(CCCCCC(C)(C)C(=O)SCCCCCCCCC)OC(=O)CC1CCN(CCO)CC1` [Compound 110], in data set [1], the “Particle size (nm)” value came to 97.59 nm and the “Particle size dispersity (PDI)” value turned out to be 0.01. The “Encapsulation efficiency (%)” value in data set [2] is recorded as 92.65%. Further, the “Total photon count in vivo at 6 hours” value with C57BL/6 mice is recorded as 2.06E+08.
`CCCCCCCCCOC(=O)C(C)(C)CCCCCC(CCCCCC(C)(C)C(=O)OCCCCCCCCC)OC(=O)CC1CCN(CCO)CC1` [Compound 113]: in data set [1], the “Particle size (nm)” value amounted to 112.65 nm and the “Particle size dispersity (PDI)” value amounted to 0.03. Besides, the “Encapsulation efficiency (%)” value in data set [2] amounted to 94.77%. In addition, in the data set with C57BL/6 mice, the “Total photon count in vivo at 6 hours” value stood at 3.59E+08.
For the compound `CCCCCCCCCOC(=O)C(C)(C)CCCCCC(CCCCCC(C)(C)C(=O)OCC(CCCCC)CCCCCCC)OC(=O)CC1CCN(CCO)CC1` (stereo not drawn) [Compound 114], in data set [1], the “Particle size (nm)” value is on record as 72.32 nm and the “Particle size dispersity (PDI)” value stood at 0.04. Moreover, in data set [2], the “Encapsulation efficiency (%)” value came out at 93.41%. Moreover, the “Total photon count in vivo at 6 hours” value in the data set with C57BL/6 mice worked out at 1.06E+08.
For `CC(C)CCCCCCCOC(=O)CCC(C)(C)CCCC(CCCC(C)(C)CCC(=O)OCCCCCCCC(C)C)OC(=O)CCCN(C)C` [Compound 127], in data set [1], the “Particle size (nm)” value was 83.01 nm and the “Particle size dispersity (PDI)” value is listed as 0.05. In addition, the “Encapsulation efficiency (%)” value in data set [2] is 62.35%. Also, the “Total photon count in vivo at 6 hours” value in the data set on C57BL/6 mice turned out to be 3.59E+10.
For `CCCCC/C=C\C/C=C\CCCCCCCCC(CCCCCCCC/C=C\C/C=C\CCCCC)OC(=O)CCCN(C)C` [DLin-MC3-DMA, reference compound], in data set [1], the “Particle size (nm)” value stood at 96.83 nm and the “Particle size dispersity (PDI)” value came to 0.04. Besides, in data set [2], the “Encapsulation efficiency (%)” value was found to be 95.62%. In data set [3], the “Luciferase luminescence (RLU)” value is given as 2.95E+06 RLU. The “Cell viability (%)” value in data set [4] is reported as 97.84%.
